Test results published in ChEMBL document CHEMBL1124383, “Carbamyl analogues of potent nicotinic agonists: pharmacology and computer-assisted molecular modeling study” (J Med Chem, 1989).

Test system: frog
Experiment: Potency with reference to carbamylcholine at the frog neuromuscular junction, expressed as reciprocal of equipotent molar ratio
Assay type: functional

Point of comparison: `CC(=O)C1CC[N+](C)(C)CC1`, Potency 9.1. Against it:
- CC(=O)C1=CC[N+](C)(C)CC1 — higher, 50
- CC(=O)N1CC[N+](C)(C)CC1 — lower, 2.6
- C[N+]1(C)CCC(C(N)=O)CC1 — lower, 0.052
- C[N+]1(C)CC=C(C(N)=O)CC1 — lower, 0.77
- C[N+]1(C)CCN(C(N)=O)CC1 — lower, 0.15
